# In PubChem BioAssay (NCI):
#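 All cell lines were grown in 96-well plates and treated with compound for 48 hours. At the GI50, growth is halved. At the TGI there is no net growth.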
# Assays:
# Experiment in all cases: growth of human tumour cells (NCI), 48 h
# [1] = system: 786-0 renal
# [2] = system: A498 renal
# [3] = system: A549 NSCLC
# [4] = system: ACHN renal
# [5] = system: BT-549 breast
# [6] = system: CAKI-1 renal
# [7] = system: CCRF-CEM leukemia
# [8] = system: COLO 205 colon
# [9] = system: DU-145 prostate
# [10] = system: EKVX NSCLC
# [11] = system: HCC-2998 colon
# [12] = system: HCT-116 colon
# [13] = system: HCT-15 colon
# [14] = system: HL-60(TB) leukemia
# [15] = system: HOP-62 NSCLC
# [16] = system: HOP-92 NSCLC
# [17] = system: HS 578T breast
# [18] = system: K-562 leukemia
# [19] = system: KM12 colon
# [20] = system: M14 melanoma
# [21] = system: MCF7 breast
# [22] = system: MDA-MB-435
# [23] = system: MOLT-4 leukemia
# [24] = system: NCI-H226 lung
# [25] = system: NCI-H460 lung
# [26] = system: NCI-H522 lung
# [27] = system: OVCAR-3 ovarian
# [28] = system: OVCAR-4 ovarian
# [29] = system: OVCAR-5 ovarian
# [30] = system: OVCAR-8 ovarian
# [31] = system: PC-3 prostate
# [32] = system: RPMI-8226 leukemia
# [33] = system: RXF 393 renal
# [34] = system: SF-268 CNS
# [35] = system: SF-295 CNS
# [36] = system: SF-539 CNS
# [37] = system: SK-MEL-2 melanoma
# [38] = system: SK-MEL-28 melanoma
# [39] = system: SK-MEL-5 melanoma
# [40] = system: SK-OV-3 ovarian
# [41] = system: SN12C renal
# [42] = system: SNB-19 CNS
# [43] = system: SNB-75 CNS
# [44] = system: SR leukemia
# [45] = system: SW-620 colon
# [46] = system: T-47D breast
# [47] = system: TK-10 renal
# [48] = system: U251 CNS
# [49] = system: UACC-257 melanoma
# [50] = system: UACC-62 melanoma
# [51] = system: UO-31 renal
# [52] = system: NCI-H23 lung
# [53] = system: NCI/ADR-RES ovarian
compound,measurement,setting,value
CC1(C)CC[C@]23CC[C@]4(C)[C@H](CC[C@@H]5[C@@]6(C)CC[C@H](N)C(C)(C)[C@@H]6CC[C@]54C)[C@H]2[C@H]1OC3,GI50,[1],1660 nM
same,TGI,[1],3260 nM
same,GI50,[2],11700 nM
same,TGI,[2],27100 nM
same,GI50,[3],1980 nM
same,TGI,[3],4360 nM
same,GI50,[4],1820 nM
same,TGI,[4],3260 nM
same,GI50,[5],15400 nM
same,TGI,[5],29000 nM
same,GI50,[6],1690 nM
same,TGI,[6],3190 nM
same,GI50,[7],2110 nM
same,TGI,[7],36300 nM
same,GI50,[8],1910 nM
same,TGI,[8],3620 nM
same,GI50,[9],1890 nM
same,TGI,[9],3670 nM
same,GI50,[10],1830 nM
same,TGI,[10],3840 nM
same,GI50,[11],1760 nM
same,TGI,[11],3330 nM
same,GI50,[12],1740 nM
same,TGI,[12],3200 nM
same,GI50,[13],1620 nM
same,TGI,[13],3150 nM
same,GI50,[14],1670 nM
same,TGI,[14],3780 nM
same,GI50,[15],1880 nM
same,TGI,[15],3780 nM
same,GI50,[16],2500 nM
same,TGI,[16],6590 nM
same,GI50,[17],2580 nM
same,TGI,[17],6900 nM
same,GI50,[18],2080 nM
same,TGI,[18],5940 nM
same,GI50,[19],1920 nM
same,TGI,[19],3650 nM
same,GI50,[20],1920 nM
same,TGI,[20],3880 nM
same,GI50,[21],1620 nM
same,TGI,[21],3320 nM
same,GI50,[22],1910 nM
same,TGI,[22],3730 nM
same,GI50,[23],2170 nM
same,TGI,[23],7300 nM
same,GI50,[24],5220 nM
same,TGI,[24],31100 nM
same,GI50,[25],1850 nM
same,TGI,[25],3600 nM
same,GI50,[26],2980 nM
same,TGI,[26],9750 nM
same,GI50,[27],1830 nM
same,TGI,[27],3480 nM
same,GI50,[28],2750 nM
same,TGI,[28],7480 nM
same,GI50,[29],1870 nM
same,TGI,[29],3950 nM
same,GI50,[30],2570 nM
same,TGI,[30],6840 nM
same,GI50,[31],2340 nM
same,TGI,[31],6140 nM
same,GI50,[32],2730 nM
same,TGI,[32],7210 nM
same,GI50,[33],1580 nM
same,TGI,[33],2940 nM
same,GI50,[34],5980 nM
same,TGI,[34],23500 nM
same,GI50,[35],1750 nM
same,TGI,[35],3270 nM
same,GI50,[36],1740 nM
same,TGI,[36],3220 nM
same,GI50,[37],2980 nM
same,TGI,[37],10100 nM
same,GI50,[38],1830 nM
same,TGI,[38],3930 nM
same,GI50,[39],1740 nM
same,TGI,[39],3200 nM
same,GI50,[40],14100 nM
same,TGI,[40],28700 nM
same,GI50,[41],1790 nM
same,TGI,[41],3570 nM
same,GI50,[42],1900 nM
same,TGI,[42],3720 nM
same,GI50,[43],17000 nM
same,TGI,[43],38900 nM
same,GI50,[44],663 nM
same,TGI,[44],4560 nM
same,GI50,[45],2000 nM
same,TGI,[45],4100 nM
same,GI50,[46],3750 nM
same,TGI,[46],19300 nM
same,GI50,[47],15700 nM
same,TGI,[47],31100 nM
same,GI50,[48],1790 nM
same,TGI,[48],3660 nM
same,GI50,[49],15300 nM
same,TGI,[49],35600 nM
same,GI50,[50],1850 nM
same,TGI,[50],3900 nM
same,GI50,[51],1500 nM
same,TGI,[51],2970 nM
CNC(=O)c1c(NC(=O)c2ccc(F)cc2F)sc2c1CCC(=O)C2,GI50,[1],390 nM
same,TGI,[1],13600 nM
same,GI50,[4],349 nM
same,TGI,[4],1080 nM
same,GI50,[5],345 nM
same,TGI,[5],2860 nM
same,GI50,[6],236 nM
same,TGI,[6],1040 nM
same,GI50,[7],146 nM
same,TGI,[7],> 100000 nM
same,GI50,[10],253 nM
same,TGI,[10],> 100000 nM
same,GI50,[15],1130 nM
same,TGI,[15],> 100000 nM
same,GI50,[17],439 nM
same,TGI,[17],5910 nM
same,GI50,[18],133 nM
same,TGI,[18],> 100000 nM
same,GI50,[23],230 nM
same,TGI,[23],> 100000 nM
same,GI50,[52],251 nM
same,TGI,[52],> 100000 nM
same,GI50,[53],265 nM
same,TGI,[53],> 100000 nM
same,GI50,[30],288 nM
same,TGI,[30],> 100000 nM
same,GI50,[32],227 nM
same,TGI,[32],> 100000 nM
same,GI50,[33],182 nM
same,TGI,[33],1730 nM
same,GI50,[34],428 nM
same,TGI,[34],> 100000 nM
same,GI50,[35],1310 nM
same,TGI,[35],5710 nM
same,GI50,[40],2590 nM
same,TGI,[40],9620 nM
same,GI50,[42],440 nM
same,TGI,[42],> 52400 nM
same,GI50,[43],722 nM
same,TGI,[43],3300 nM
same,GI50,[44],89 nM
same,TGI,[44],> 100000 nM
same,GI50,[47],431 nM
same,TGI,[47],17700 nM
same,GI50,[48],288 nM
same,TGI,[48],> 100000 nM
